Experimental data: patent US5464865A, “4-aryl- and 4-arylthio-5-hydroxy-2(5H)-furanones as inhibitors of phospholipase A2” (Ortho Pharmaceutical Corporation, priority 1993, dated 1995)

Target: T1, human platelet phospholipase A2 (Homo sapiens, UniProt P14555)
T1 construct: a preparation of human platelet phospholipase A2; from tissue; host or cells: human platelets
T1 sequence (P14555 21-144): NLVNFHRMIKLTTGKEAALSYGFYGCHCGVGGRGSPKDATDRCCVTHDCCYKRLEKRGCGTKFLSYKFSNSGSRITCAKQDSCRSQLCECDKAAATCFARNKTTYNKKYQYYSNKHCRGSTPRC
Assay: Inhibition of human platelet phospholipase A2 (14C-oleate E. coli substrate)
Format: biochemical
Conditions: @ 10 μM (values marked *); read-out: Inhibition of PLA2, % Inhibition @ *10 μM
Experimental: The activity of the compounds of the invention against phospholipase A2 is determined using a preparation of human platelet phospholipase A2 with a specific activity of 180 nmol/min/mg as the enzyme source. Polypropylene 15-ml test tubes are utilized as the reaction vessels. All drug samples are run in duplicate, with "blank" and "control" (no test compound) groups run in triplicate. […] Test compounds are dissolved in DMSO, and diluted to a projected final concentration of either 50 or 10 μM in 550 μl HEPES buffer at pH 7.0. A 1:7 dilution of human platelet PLA2 in HEPES buffer (5 μl) is added to each test tube, followed by gentle vortexing for 3 seconds. The reaction tubes containing drug, buffer, and enzyme are preincubated for 15 min at 37°, followed by the addition of 25 μl of ^14 C-oleate E. coli substrate. Details regarding this substrate may be found in a publication by S. Ghosh and R. Franson, Biochem. Cell. Biol., 70, 43 (1992), and references therein.
The tubes are immediately vortexed at moderate speed for 3 sec, followed by a 60 min incubation at 37° in a shaking water bath. The reaction is stopped by the addition of 3 ml of a 1:2 chloroform-methanol mixture. Additional water (1.5 ml) and chloroform (1.0 ml) are added, followed by vortexing. The lower phase is removed with a polypropylene transfer pipette, and transferred to a 13×100 mm polypropylene test tube. The organic solvent is evaporated with a stream of nitrogen, the residue is redissolved in 30 μl of a 9:1 chloroform-methanol mixture, and the solution is spotted on a channeled polyester-backed silica gel TLC plate, such as those available under the trade name PE SIL G available from Whatman Inc, Clifton, N.J.
The plate is developed with an 80:20:1 mixture of petroleum ether-diethyl ether-acetic acid. […] The plate is scored above the origin, cut along the score with scissors, and the reactant (origin) and product portions of each channel are put into separate scintillation vials. To each vial is added a scintillation cocktail (15 ml), preferably that sold under the trademark ECOLUME by ICN Biomedicals, Irvine Calif. The vials are shaken vigorously for 5 sec, and the radioactive ^14 C in each vial is measured with a scintillation counter, which provides the counts-per-minute (cpm) for each sample. The obtained cpm values are corrected for the "blank" values.
The percentage of phospholipid hydrolyzed is calculated by the formula:
Phospholipid converted=100×cpm products / (cpm products+cpm
The inhibition of phospholipase A2 by the test compounds is expressed as a percent inhibition relative to the control group:
% Inhibition=[…]

Row | inhibition at 10 µM [%] | SMILES
1 | 92 | CC1=C(C/C=C(\C)CCCOc2ccc(C3=CC(=O)OC3O)cc2)C(C)(C)CCC1 (stereo not drawn) [Example 26, (E)-5-Hydroxy-4-(4-(4-methyl-6-(2,6,6-trimethyl-1-cyclohexen-1-yl)-4-hexenyloxy)phenyl)-2(5H)-furanone]
2 | 45 | O=C1C=C(c2cccc(C#Cc3ccccc3)c2)C(O)O1 (stereo not drawn) [Example 63, 5-Hydroxy-4-(3-(2-phenylethynyl)phenyl)-2(5H)-furanone]
3 | 27 | CCCCCCCCOc1ccc(C2=CC(=O)OC2O)cc1OC (stereo not drawn) [Example 6, 5-Hydroxy-4-(3-methoxy-4-octyloxyphenyl)-2(5H)furanone]
4 | 98 | CCCCCCCCCCCCCOc1ccc(SC2=CC(=O)OC2O)cc1 (stereo not drawn) [Example 65, 5-Hydroxy-4-(4-(tridecyloxy)phenylthio)-2(5H)-furanone]
5 | 24 | O=C1C=C(c2ccc(C#Cc3ccc(C(F)(F)F)cc3)cc2)C(O)O1 (stereo not drawn) [Example 58, 5-Hydroxy-4-(4-(2-(4-(trifluoromethyl)phenyl)ethynyl)phenyl)-2(5H)-furanone]
6 | 58 | CCCCCCCCOc1ccc(C2=CC(=O)OC2O)c(OC)c1 (stereo not drawn) [Example 5, 5-Hydroxy-4-(2-methoxy-4-octyloxyphenyl)-2(5H)furanone]
7 | 7 | CCCCCCCCOc1ccc(C2=CC(=O)OC2O)cc1NC(C)=O (stereo not drawn) [Example 9, 5-Hydroxy-4-(3-acetamido-4-octyloxyphenyl)-2(5H)furanone]
8 | 67 | CCCCCCCCOc1ccc(C2=CC(=O)OC2O)cc1[N+](=O)[O-] (stereo not drawn) [Example 7, 5-Hydroxy-4-(3-nitro-4-octyloxyphenyl)-2(5H)furanone]
9 | 33 | O=C1C=C(c2ccc(C#Cc3cc4ccccc4s3)cc2)C(O)O1 (stereo not drawn) [Example 62]
10 | 71 | CCCCCCCCOc1ccc(C2=CC(=O)OC2O)cc1Cl (stereo not drawn) [Example 4, 5-Hydroxy-4-(3-chloro-4-octyloxyphenyl)-2(5H)furanone]
11 | 21 | CCCCCCCCOc1ccccc1C1=CC(=O)OC1O (stereo not drawn) [Example 8, 5-Hydroxy-4-(2-octyloxyphenyl)-2(5H)furanone]
12 | 49 | CCCCCCCCS(=O)(=O)c1ccc(C2=CC(=O)OC2O)cc1 (stereo not drawn) [Example 22, 5-Hydroxy-4-(4-octylsulfonyl)phenyl-2(5H)furanone]
13 | 40 | CCCCCCCCN(C(C)=O)c1ccc(C2=CC(=O)OC2O)cc1 (stereo not drawn) [Example 25, 5-Hydroxy-4-(4-(N-acetyl-N-octylamino)phenyl)-2(5H)furanone]
14 | 48 | CCCCCOc1ccc(SC2=CC(=O)OC2O)cc1 (stereo not drawn) [Example 66, 5-Hydroxy-4-(4-(pentyloxy)phenylthio)-2(5H)-furanone]
15 | 6 | O=C1C=C(c2ccc(C#Cc3cccc([N+](=O)[O-])c3)cc2)C(O)O1 (stereo not drawn) [Example 59, 5-Hydroxy-4-(4-(2-(3-nitrophenyl)ethynyl)phenyl)-2(5H)-furanone]
16 | 69 | CCCCCCCCOc1ccc(C2=CC(=O)OC2O)c(Cl)c1 (stereo not drawn) [Example 2, 5-Hydroxy-4-(2-chloro-4-octyloxyphenyl)-2(5H)furanone]
17 | 11 | O=C1C=C(c2ccc(C#Cc3ccc([N+](=O)[O-])cc3)cc2)C(O)O1 (stereo not drawn) [Example 60, 5-Hydroxy-4-(4-(2-(4-nitrophenyl)ethynyl)phenyl)-2(5H)-furanone]

Same assay, conditions: pH 7.0, 37°, 60 min incubation; read-out: Inhibition of PLA2, IC50

Row | IC50 [µM] | SMILES
18 | 8.4 | O=C1C=C(c2ccc(C#Cc3cccc4ccccc34)cc2)C(O)O1 (stereo not drawn) [Example 57, 5-Hydroxy-4-(4-(2-(1-naphthyl)ethynyl)phenyl)-2(5H)-furanone]
19 | 50 | O=C1C=C(c2ccc(Oc3ccc4ccccc4c3)cc2)C(O)O1 (stereo not drawn) [Example 50, 5-Hydroxy-4-(4-(2-naphthyloxy)phenyl)-2(5H)-furanone]
20 | 9.4 | CCCCCCCCOc1ccc(C2=CC(=O)OC2O)cc1[N+](=O)[O-] (stereo not drawn) [Example 7, 5-Hydroxy-4-(3-nitro-4-octyloxyphenyl)-2(5H)furanone]
21 | 0.5 | CC1=C(C/C=C(\C)COc2ccc(SC3=CC(=O)OC3O)cc2)C(C)(C)CCC1 (stereo not drawn) [Example 67, (E)-5-Hydroxy-4-(4-(2-methyl-4-(2,6,6-trimethyl-1-cyclohexen-1-yl)-2-butenyloxy)phenylthio)-2(5H)-furanone]
22 | 5.4 | CCCCCCCCOc1ccc(C2=CC(=O)OC2O)cc1Cl (stereo not drawn) [Example 4, 5-Hydroxy-4-(3-chloro-4-octyloxyphenyl)-2(5H)furanone]
23 | 50 | O=C1C=C(c2ccc(C(=O)c3ccc4ccccc4c3)cc2)C(O)O1 (stereo not drawn) [Example 29, 5-Hydroxy-4-(4-(2-naphthoyl)phenyl)-2(5H)-furanone]
24 | 7.5 | CCCCCCCCOc1ccc(C2=CC(=O)OC2O)c(Cl)c1 (stereo not drawn) [Example 2, 5-Hydroxy-4-(2-chloro-4-octyloxyphenyl)-2(5H)furanone]
25 | 42 | CC(C)(C)C#Cc1ccc(C2=CC(=O)OC2O)cc1 (stereo not drawn) [Example 53, 5-Hydroxy-4-(4-(3,3-dimethyl-1-butynyl)phenyl)-2(5H)-furanone]

Same assay, conditions: read-out: Inhibition of PLA2, % Inhibition @ 50 μM

Row | inhibition at 50 µM [%] | SMILES
26 | 69 | O=C1C=C(c2ccc(C#Cc3cccc4ccccc34)cc2)C(O)O1 (stereo not drawn) [Example 57, 5-Hydroxy-4-(4-(2-(1-naphthyl)ethynyl)phenyl)-2(5H)-furanone]
27 | 52 | CCCCCCCCOc1ccc(C2=CC(=O)OC2O)cn1 (stereo not drawn) [Example 69, 5-Hydroxy-4-(6-octyloxy-3-pyridyl)-2(5H)-furanone]
28 | 0 | COc1ccc(CCNC(=O)c2ccc(C3=CC(=O)OC3O)cc2)cc1OC (stereo not drawn) [Example 48, 5-Hydroxy-4-(4-((2-(3,4-dimethoxyphenyl)ethyl)aminocarbonyl)phenyl)-2(5H)-furanone]
29 | 52 | O=C1C=C(c2ccc(Oc3ccc4ccccc4c3)cc2)C(O)O1 (stereo not drawn) [Example 50, 5-Hydroxy-4-(4-(2-naphthyloxy)phenyl)-2(5H)-furanone]
30 | 55 | CCCCCCCC(=O)c1ccc(C2=CC(=O)OC2O)cc1 (stereo not drawn) [Example 32, 5-Hydroxy-4-(4-octanoylphenyl)-2(5H)-furanone]
31 | 6 | O=C1C=C(c2ccc(C(=O)c3ccccc3F)cc2)C(O)O1 (stereo not drawn) [Example 31, 5-Hydroxy-4-(4-(2-fluorobenzoyl)phenyl)-2(5H)-furanone]
32 | 98 | CC1=C(C/C=C(\C)COc2ccc(SC3=CC(=O)OC3O)cc2)C(C)(C)CCC1 (stereo not drawn) [Example 67, (E)-5-Hydroxy-4-(4-(2-methyl-4-(2,6,6-trimethyl-1-cyclohexen-1-yl)-2-butenyloxy)phenylthio)-2(5H)-furanone]
33 | 17 | O=C1C=C(c2ccc(OCCCc3ccccc3)cc2)C(O)O1 (stereo not drawn) [Example 10, 5-Hydroxy-4-[4-(3-phenylpropyloxy)phenyl]-2(5H)furanone]
34 | 59 | O=C1C=C(c2ccc(C#Cc3ccc4ccccc4c3)cc2)C(O)O1 (stereo not drawn) [Example 56, 5-Hydroxy-4-(4-(2-(2-naphthyl)ethynyl)phenyl)-2(5H)-furanone]
35 | 0 | C=CCOc1cccc(C2=CC(=O)OC2O)c1 (stereo not drawn) [Example 11, 5-Hydroxy-4-[(3-allyloxy)phenyl]-2(5H)furanone]
36 | 23 | O=C1C=C(c2ccc(/C=C\c3ccccc3)cc2)C(O)O1 (single isomer, unassigned) [Example 33, (Z)-5-Hydroxy-4-(4-(2-phenylethenyl)phenyl)-2(5H)-furanone]
37 | 39 | CCCCCCCCOc1cccc(C2=CC(=O)OC2O)c1 (stereo not drawn) [Example 3, 5-Hydroxy-4-(3-octyloxyphenyl)-2(5H)furanone]
38 | 0 | CCCCSc1ccc(C2=CC(=O)OC2O)cc1 (stereo not drawn) [Example 24, 5-Hydroxy-4-(4-(butylthio)phenyl)-2(5H)furanone]
39 | 0 | O=C1C=C(Sc2ccc(Br)cc2)C(O)O1 (stereo not drawn) [Example 68, 5-Hydroxy-4-((4-bromophenyl)thio)-2(5H)-furanone]
40 | 70 | CCCCCCCCSc1nc(C2=CC(=O)OC2O)cs1 (stereo not drawn) [Example 70, 5-Hydroxy-4-(2-(octylthio)-4-thiazolyl)-2(5H)-furanone]
41 | 30 | O=C1C=C(c2ccc(CC(O)COc3ccc4ccccc4c3)cc2)C(O)O1 (racemic) [Example 51, 5-Hydroxy-4-(4-(2-hydroxy-3-(2-naphthyloxy)propyl)phenyl)-2(5H)-furanone]
42 | 0 | CCCCCCCC(=O)Nc1cccc(C2=CC(=O)OC2O)c1 (stereo not drawn) [Example 20, 5-Hydroxy-4-(3-(1-oxooctylamino)phenyl)-2(5H)furanone]
43 | 59 | O=C1C=C(c2ccc(C(=O)c3ccc4ccccc4c3)cc2)C(O)O1 (stereo not drawn) [Example 29, 5-Hydroxy-4-(4-(2-naphthoyl)phenyl)-2(5H)-furanone]
44 | 5 | O=C1C=C(c2ccc(Cc3ccccc3)cc2)C(O)O1 (stereo not drawn) [Example 49, 5-Hydroxy-4-(4-(phenylmethyl)phenyl)-2(5H)-furanone]
45 | 0 | CCCCCCCC(=O)Nc1ccc(C2=CC(=O)OC2O)cc1 (stereo not drawn) [Example 21, 5-Hydroxy-4-(4-(1-oxooctylamino)phenyl)-2(5H)furanone]
46 | 0 | O=C1C=C(c2ccc(OS(=O)(=O)C(F)(F)F)cc2)C(O)O1 (stereo not drawn) [Example 46, 5-Hydroxy-4-(4-(trifluoromethanesulfonoxy)phenyl)-2(5H)-furanone]
47 | 33 | COc1ccc(C#Cc2ccc(C3=CC(=O)OC3O)cc2)cc1 (stereo not drawn) [Example 61, 5-Hydroxy-4-(4-(2-(4-methoxyphenyl)ethynyl)phenyl)-2(5H)-furanone]
48 | 53 | CC(C)(C)C#Cc1ccc(C2=CC(=O)OC2O)cc1 (stereo not drawn) [Example 53, 5-Hydroxy-4-(4-(3,3-dimethyl-1-butynyl)phenyl)-2(5H)-furanone]
